“And” between values parts separate entries of the source, which are not always exact repeats. Identical values can stand only once.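 In this assay, cells in 96-well plates receive the compound at five concentrations for 48 hours. Endpoints are linearly interpolated between the surrounding concentrations. Abbreviation: GI50, concentration required for 50% inhibition of growth. TGI: total growth inhibition.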 Where only a bound is given, the exact number is not on record here.

Common to all, as to test: DTP human tumour cell line panel, 48 h
Assay [1] concerns NCI-H226 lung.
The subject of assay [2] is MDA-MB-435.
The subject of assay [3] is T-47D breast.
The subject of assay [4] is KM20L2 colon.
Assay [5] deals with MCF7 breast.
In assay [6] the test system is LOX IMVI melanoma.
Assay [7] has as its system SR leukemia.
Assay [8] deals with EKVX NSCLC.
Assay [9] has as its system MALME-3M melanoma.
For assay [10], the system named is NCI/ADR-RES ovarian.
Assay [11] relates to MDA-N.
Assay [12] has as its system DU-145 prostate.
The subject of assay [13] is BT-549 breast.

In the case of `COc1cc([C@@H]2c3cc4c(c(O)c3C[C@H]3COC(=O)[C@@H]32)OCO4)cc(OC)c1OC`, the GI50 (commonly the concentration giving 50% growth inhibition) is 0.364 µM in assay [1]; 0.000192 µM in assay [2]; 0.324 µM in [3]; 0.0349 µM in assay [5]; 0.334 µM in assay [6]; 1.46 µM and 0.812 µM in assay [7]. The concentration for total growth inhibition (TGI) (in general, the concentration giving total growth inhibition) in assay [1] was 150 µM and 19.6 µM; in assay [2], 0.000802 µM; in assay [3] it was over 231 µM; in [4], 0.522 µM.

For `Cc1nc2c(c(=O)[nH]1)S/C(=C(/C#N)c1nc3ccccc3[nH]1)N2c1ccccc1`, the TGI in [4], in [8], in assay [9] and in assay [7] was over 100 µM each time.

Consider `COc1ccc2c(c1O)-c1cc(O)cc3c1[C@@H](C2)N(C)CC3`, for which the TGI in assay [1] came out at 108 µM; in assay [4], 31.2 µM; in assay [8] it was 187 µM; in assay [9], 126 µM; in assay [5], 129 µM; in assay [10], 227 µM. This molecule yielded a TGI in assay [6] of 142 µM.

Consider `O=C1C(Cl)N(c2cccc(Cl)c2)C1c1c[nH]c2ccccc12` (centres undefined), for which the TGI in assay [4], in assay [8], in assay [9] and in assay [7] was over 100 µM throughout.

Regarding `Nc1ccccc1Nc1ccccc1C(=O)[O-].Nc1ccccc1Nc1ccccc1C(=O)[O-].[Zn+2]`, the concentration for total growth inhibition (TGI) in assay [4], in assay [8] and in [9] was over 100 µM throughout.

In the case of `Cc1cc(O)c2c(c1O)C(=O)c1cccc(O)c1C2=O`, the TGI in assay [1], in assay [2], in assay [3], in assay [8], in assay [11] and in assay [5] was over 100 µM in each case. For the same molecule, the TGI in assay [10], in [6], in assay [12] and in assay [13] was over 100 µM throughout.

For the molecule `C(/C=C/c1ccccc1)=Nc1ccc2c(c1)Cc1ccccc1-2`, the TGI in [1], in assay [2], in [3], in [8], in [9] and in [11] was over 100 µM each time. For the same molecule, the TGI in [10] is over 100 µM; in assay [6], 63 µM; in assay [12] it was over 100 µM; in assay [13], over 100 µM; in assay [7], 90.4 µM.

Regarding `COc1cc(C2S/C(=C/c3ccccc3)C(=O)N2c2ccc(NC(C)=O)cc2)cc(OC)c1OC` (centres undefined), the TGI was 62.4 µM in [2]; 55.1 µM in assay [3]; 38.4 µM in assay [8]; 55.6 µM in assay [9]; 63.4 µM in [11]; over 100 µM in assay [5]. The TGI is 76.2 µM in assay [10], 63.7 µM in assay [6], 65.4 µM in [13] and over 100 µM in assay [7].

Regarding `NC(CSCc1ccc(I)cc1)C(=O)O` (centres undefined), the TGI in [1], in assay [2], in assay [3], in assay [8], in [9] and in [11] was over 100 µM throughout. The TGI in assay [5], in assay [10], in assay [6], in assay [12] and in assay [13] was over 100 µM each time.

On to `CC[C@@H]1ON(C)[C@H]2CN(C)C(=O)[C@@H]12`, for which the TGI in assay [1], in [2], in assay [3], in [11], in assay [5] and in [10] was over 100 µM throughout. Also, the TGI in assay [6], in assay [12] and in assay [7] was over 100 µM each time.

Take `Cc1c(C)c(C)c(CC2(C)CSC2)c(CC2(C)CSC2)c1C`: the TGI in [1], in [3], in assay [8], in assay [9], in [11] and in [5] was over 100 µM throughout. In addition, the TGI in [10], in assay [6], in assay [12], in assay [13] and in assay [7] was over 100 µM each time.

Take `COc1ccc(-c2csc(=Nc3ccccc3)n2CCCN(C)C)cc1`: the TGI is 38.1 µM in assay [1]; 65.3 µM in assay [2]; over 100 µM in assay [11]; 54.3 µM in [10]; 37.3 µM in [13]; 67.1 µM in assay [7].

As to `NC(=S)N/N=C/c1nccc2ccccc12`, the TGI was over 100 µM in [4], 0.476 µM in assay [9], 2.64 µM in assay [6] and 11.5 µM in [7].

On to `CCN1CCCC(C#N)(c2ccccc2)CC1` (centres undefined), for which the TGI in assay [3], in [8], in assay [9], in [11], in assay [10] and in assay [12] was over 100 µM throughout. The molecule further displayed a TGI in assay [7] of over 100 µM.

`CN(C)CCCC1c2ccccc2Oc2ccc(C(F)(F)F)cc21` (centres undefined): the concentration for total growth inhibition (TGI) in assay [1] came out at 23.1 µM; in assay [2], 19.1 µM; in assay [3], 30.5 µM; in assay [8], 31.3 µM; in [9] it was 15.8 µM; in assay [11], 15.2 µM. In addition, the concentration for total growth inhibition (TGI) in assay [5] is 26.6 µM; in assay [10] it was 28.3 µM; in [6], 31.6 µM; in assay [12] it was 31.1 µM; in [13], 28.2 µM; in assay [7] it was 24.5 µM.

The record behind these values is PubChem BioAssay (NCI).
